# Measured values as given in patent publication EP3910064A1, “PROCESS OF OBTAINING A PHLOROTANNIN-ENRICHED EXTRACT HAVING ANTI-ENZYMATIC ACTION FOR USE IN DERMATOLOGY” (Instituto Politécnico De Leiria, priority 2020, dated 2021).
# Molecular target: collagenase
# Assay: Collagenase inhibition (analytical kit)
# Format: biochemical
# Conditions: confidence interval in parentheses
# Text: Table 2 - Inhibitory effect (IC50) of the different extracts obtained based on the interval of concentrations tested on the enzymes collagenase and elastase.
smiles,measurement,value
O=C(O[C@@H]1Cc2c(O)cc(O)cc2O[C@@H]1c1cc(O)c(O)c(O)c1)c1cc(O)c(O)c(O)c1 [Epigallocatechin gallate],IC50 Collagenase,4.8 (4.10-5.50) µg/mL
